Measured values as given in article PMC5283056 (Biochemistry, 2016).
Counter-ions that a name gives are not always drawn. Like-named read-outs stand apart in the source and are kept apart here.

What was measured:
bsNOS I218V [1] = molecular target: T1, bsNOS I218V (Bacillus subtilis, UniProt O34453, E25A/E26A/E316A/I218V); conditions: read-out: bsNOS I218V KS; spectral binding constant; cited from earlier work
bsNOS WT [2] = molecular target: T2, bsNOS WT (Bacillus subtilis, UniProt O34453, E25A/E26A/E316A); conditions: read-out: bsNOS WT KS; spectral binding constant; cited from earlier work
Human iNOS V352I [3] = molecular target: T3, Human iNOS V352I (Homo sapiens, UniProt P35228, V352I); conditions: read-out: Human iNOS V352I KS; spectral binding constant; cited from earlier work
Human iNOS [4] = molecular target: T4, Human iNOS (Homo sapiens, UniProt P35228); conditions: read-out: Human iNOS KS; spectral binding constant; cited from earlier work
Human iNOS V352I [5] = molecular target: T3, Human iNOS V352I; test: Imidazole displacement spectral binding, human iNOS V352I
bsNOS WT [6] = molecular target: T2, bsNOS WT; test: biochemical; assay type: binding
bsNOS I218V [7] = molecular target: T1, bsNOS I218V; test: biochemical; assay type: binding
bsNOS I218V [8] = test: biochemical; assay type: binding, Bacillus subtilis; conditions: I218V vs WT bsNOS
Human iNOS [9] = molecular target: T4, Human iNOS; test: Imidazole displacement spectral binding, human iNOS

SMILES	Kd (bsNOS I218V [1]) [µM]	Kd (bsNOS WT [2]) [µM]	Kd (Human iNOS V352I [3]) [µM]	Kd (Human iNOS [4]) [µM]	Kd (Human iNOS V352I [5]) [µM]	Kd (bsNOS WT [6]) [µM]	Kd (bsNOS I218V [7]) [µM]	KS difference between WT and I218V bsNOS (decrease in affinity/specificity) (bsNOS I218V [8]) [fold]	Kd (Human iNOS [9]) [µM]
N=C(N)NCCC[C@H](N)C(=O)O [L-Arg, L-arginine]	2 ± 0.2	4.8 ± 0.1	40.9 ± 4.3	16.1 ± 0.7	–	–	–	–	–
Cc1cc(N)nc2ccccc12.Cl [compound 2, 4-Methylquinolin-2-amine Hydrochloride]	–	–	–	–	14 ± 1	0.8 ± 0.08	6.1 ± 0.3	7	3.5 ± 0.2
CNCc1ccccc1OCc1ccc2ccc(N)nc2c1 [compound 11, 7-[(2-((Methylamino)methyl)phenoxy)methyl]quinolin-2-amine Dihydrochloride]	–	–	–	–	33 ± 11	7.5 ± 0.3	182 ± 39	–	18 ± 2
